We go through five molecules from patent US11780893B2, “Kv1.3 blockers” (Zealand Pharma A/S, priority 2019, dated 2023).

Each structure is given as a SMILES string. Read-outs that look alike come from different tables or passages of the source. Bridge positions count the residues as written; N and C are the ends. Square brackets hold non-standard residues; d marks the D form. Peptide text beside a SMILES is read from it. Nle = CCCC[C@H](N)C(=O)O

For data set [1], the target named is T1, Kv1.1 (Homo sapiens, UniProt Q09470).
T1 construct: expressed in transfected cells; host or cells: Chinese Hamster Ovary (CHO)
T1 sequence (Q09470 whole entry): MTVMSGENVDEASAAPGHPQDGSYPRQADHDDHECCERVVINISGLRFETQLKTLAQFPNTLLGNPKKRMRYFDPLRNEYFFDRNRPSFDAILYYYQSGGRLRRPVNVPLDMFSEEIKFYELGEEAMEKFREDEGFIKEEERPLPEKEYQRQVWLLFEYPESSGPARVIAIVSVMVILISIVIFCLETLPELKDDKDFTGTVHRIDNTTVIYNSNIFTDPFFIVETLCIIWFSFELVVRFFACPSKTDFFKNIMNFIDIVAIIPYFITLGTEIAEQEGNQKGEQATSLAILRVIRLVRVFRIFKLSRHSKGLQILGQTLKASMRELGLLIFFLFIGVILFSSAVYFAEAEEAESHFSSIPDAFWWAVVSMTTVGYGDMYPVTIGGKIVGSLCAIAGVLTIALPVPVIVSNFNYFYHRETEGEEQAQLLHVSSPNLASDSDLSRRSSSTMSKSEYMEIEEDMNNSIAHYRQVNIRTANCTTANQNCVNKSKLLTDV
The data set is described as follows: cell-based. The settings on record: for IC50: CHO cells, whole-cell patch clamp, read-out: Potency IC50 (nM) Kv1.1; for Selectivity Kv1.1/Kv1.3: ratio IC50[Kv1.1]/IC50[Kv1.3].

Data set [2] addresses T2, human Kv1.3 voltage-gated K+ channel (Homo sapiens, UniProt P22001).
T2 construct: host or cells: CHO-DUKX
The data set is described as follows: cell-based. The settings on record: inhibition of thallium flux, CHO-DUKX cells with human Kv1.3; read-out: IC50.

The target in data set [3] is T3, Kv1.3 (Homo sapiens, UniProt P22001).
T3 construct: expressed in transfected cells; host or cells: Chinese Hamster Ovary (CHO)
T3 sequence (P22001 whole entry): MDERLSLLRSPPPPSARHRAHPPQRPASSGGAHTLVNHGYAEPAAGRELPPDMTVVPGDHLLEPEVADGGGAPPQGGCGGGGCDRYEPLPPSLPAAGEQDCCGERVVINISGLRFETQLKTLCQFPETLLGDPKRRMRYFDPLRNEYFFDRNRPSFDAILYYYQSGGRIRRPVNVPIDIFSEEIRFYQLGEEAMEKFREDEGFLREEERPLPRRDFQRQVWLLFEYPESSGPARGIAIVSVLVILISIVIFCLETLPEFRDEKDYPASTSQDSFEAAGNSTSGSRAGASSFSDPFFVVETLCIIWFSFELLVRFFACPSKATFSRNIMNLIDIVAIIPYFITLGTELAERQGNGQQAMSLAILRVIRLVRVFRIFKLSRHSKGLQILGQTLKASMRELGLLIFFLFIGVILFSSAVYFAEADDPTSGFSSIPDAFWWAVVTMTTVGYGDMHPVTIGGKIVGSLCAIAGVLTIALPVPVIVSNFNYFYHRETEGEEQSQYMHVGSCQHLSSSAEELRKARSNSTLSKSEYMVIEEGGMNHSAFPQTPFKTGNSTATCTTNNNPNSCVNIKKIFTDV
Put plainly: cell-based. To be noted: CHO cells, whole-cell patch clamp; read-out: Potency IC50 (nM) Kv1.3. Background: Patch clamp records ionic current or voltage across a cell membrane.

Data set [4] concerns the target T4, Kv1.6 (Homo sapiens, UniProt P17658).
T4 construct: expressed in transfected cells; host or cells: Chinese Hamster Ovary (CHO)
Put plainly: cell-based. To be noted: for IC50: CHO cells, whole-cell patch clamp, read-out: Potency IC50 (nM) Kv1.6; for Selectivity Kv1.6/Kv1.3: ratio IC50[Kv1.6]/IC50[Kv1.3].

Data set [5] has as its system Human peripheral blood mononuclear cells (PBMCs). Put plainly: IL-2 release from anti-CD3 stimulated human PBMCs (Example 4a). It counts as cell-based. To be noted: for IC50: geometric mean, at least 4 replicates, read-out: anti-CD3 PBMC/IL-2 IC50. As for the experimental part:
Human peripheral blood mononuclear cells (PBMCs) were used to assess the effects of Kv1.3 blockers on T-cell activation as determined by IL-2 (cytokine) release after stimulation with anti-CD3.
Human PBMCs were obtained from Precision for Medicine (Frederick, Md.). Cells from 5 donors were used. Plate-bound anti-CD3 was used to stimulate bulk T cells in the PBMC preparations. Briefly, 96-well plates were coated with anti-CD3 antibody for 2 hrs at 37° C., using 50 μL of a 0.5 μg/mL anti-CD3 solution diluted in 1×PBS. Thereafter the plates were washed twice.
Finally, 1×10^5 PBMCs were added to each well in a volume of 100 μL, giving a final volume of 200 μL per well. The plates were incubated for 20-24 hours in a 37° C./5% CO2 incubator. After centrifugation of the plates, 25 μl supernatant was transferred to IL-2 detection plates (MSD Human IL-2 Tissue Culture Kit, cat #K151AHB-2) and IL-2 was measures as described by the manufacturer (Meso Scale Discovery, Rockville, Md., USA).
Results are shown in Table 4a as geometric mean of IC50 values obtained from anti-CD3 stimulated human PBMC assays. All values derive from at least 4 replicates.

For data set [6], the target named is T5, Kv1.2 (Homo sapiens, UniProt P16389).
T5 construct: expressed in transfected cells; host or cells: Chinese Hamster Ovary (CHO)
T5 sequence (P16389 whole entry): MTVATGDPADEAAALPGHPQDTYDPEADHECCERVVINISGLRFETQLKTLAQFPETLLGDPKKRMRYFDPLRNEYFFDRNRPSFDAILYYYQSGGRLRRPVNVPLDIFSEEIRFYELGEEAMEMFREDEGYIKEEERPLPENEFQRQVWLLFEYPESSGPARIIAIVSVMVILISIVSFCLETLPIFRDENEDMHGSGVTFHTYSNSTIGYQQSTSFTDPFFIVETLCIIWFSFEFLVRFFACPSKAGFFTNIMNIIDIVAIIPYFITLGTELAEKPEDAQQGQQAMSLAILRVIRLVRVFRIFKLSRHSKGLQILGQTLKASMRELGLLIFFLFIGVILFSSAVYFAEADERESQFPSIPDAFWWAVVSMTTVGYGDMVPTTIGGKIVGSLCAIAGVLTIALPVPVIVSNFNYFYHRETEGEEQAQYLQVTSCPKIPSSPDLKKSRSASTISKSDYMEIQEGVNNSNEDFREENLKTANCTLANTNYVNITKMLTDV
Put plainly: cell-based. The settings on record: CHO cells, whole-cell patch clamp; read-out: Potency IC50 (nM) Kv1.2.

Data set [7] has as its system delayed-type hypersensitivity (DTH) ear swelling response. It counts as in vivo, rat. The settings on record: Kv1.3 blocker 100 nmol/kg SC 24 hrs prior to KLH challenge, CsA 10 mg/kg per os.
The target in data set [8] is Rat whole blood (Rattus norvegicus, UniProt P15384).
Sequence of Rat whole blood (P15384 whole entry): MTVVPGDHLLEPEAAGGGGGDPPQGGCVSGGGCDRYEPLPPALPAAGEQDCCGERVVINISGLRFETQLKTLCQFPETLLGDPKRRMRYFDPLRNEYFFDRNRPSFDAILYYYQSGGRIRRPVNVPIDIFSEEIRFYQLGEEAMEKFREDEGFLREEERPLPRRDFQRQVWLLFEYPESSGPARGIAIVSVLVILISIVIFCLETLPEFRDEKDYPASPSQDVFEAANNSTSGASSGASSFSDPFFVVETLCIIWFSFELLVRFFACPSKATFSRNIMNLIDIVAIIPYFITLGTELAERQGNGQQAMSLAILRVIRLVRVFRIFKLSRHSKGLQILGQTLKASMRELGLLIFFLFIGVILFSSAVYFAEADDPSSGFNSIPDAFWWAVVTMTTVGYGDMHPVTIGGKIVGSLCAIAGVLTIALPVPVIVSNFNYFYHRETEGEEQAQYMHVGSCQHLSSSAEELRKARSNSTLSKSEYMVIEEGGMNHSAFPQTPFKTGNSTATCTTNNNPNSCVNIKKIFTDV
A short description of data set [9]: in vivo. The settings on record: male, rat, sc, 70 nmol/kg.

T2 sequence (P22001 whole entry): as the sequence (P22001 whole entry) above
T4 sequence (P17658 whole entry): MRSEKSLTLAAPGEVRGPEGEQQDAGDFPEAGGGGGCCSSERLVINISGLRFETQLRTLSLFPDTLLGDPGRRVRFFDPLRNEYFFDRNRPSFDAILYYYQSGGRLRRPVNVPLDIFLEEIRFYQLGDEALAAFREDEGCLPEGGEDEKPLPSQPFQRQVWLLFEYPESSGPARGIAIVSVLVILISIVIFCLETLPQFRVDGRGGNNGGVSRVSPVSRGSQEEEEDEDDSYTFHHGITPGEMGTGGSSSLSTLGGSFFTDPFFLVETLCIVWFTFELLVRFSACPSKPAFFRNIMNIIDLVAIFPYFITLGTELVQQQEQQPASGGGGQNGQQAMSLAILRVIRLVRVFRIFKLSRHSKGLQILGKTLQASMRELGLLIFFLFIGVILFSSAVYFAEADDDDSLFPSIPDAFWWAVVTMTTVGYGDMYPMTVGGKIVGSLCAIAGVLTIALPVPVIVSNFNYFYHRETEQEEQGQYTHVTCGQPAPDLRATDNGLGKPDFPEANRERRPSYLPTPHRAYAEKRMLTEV

Consider `CC[C@H](C)[C@@H]1NC(=O)[C@H](C)NC(=O)[C@H](CC(=O)O)NC(=O)[C@H](CC(C)C)NC(=O)[C@@H]2CSSC[C@@H](C(=O)N[C@@H](Cc3ccc(O)cc3)C(=O)N3CCC[C@H]3C(=O)N[C@@H](CCCNC(=N)N)C(N)=O)NC(=O)[C@H](CCCCN)NC(=O)[C@@H]3CSSC[C@H](NC(=O)[C@H](CCC(=O)O)NC(=O)[C@H](C(C)C)NC(=O)[C@H](CO)NC(=O)[C@H](C)NC(=O)[C@H](CO)NC(=O)[C@@H](NC(=O)[C@H](CCCNC(=N)N)NC(=O)[C@H](CCSC)NC(=O)[C@H](CC(=O)O)NC(=O)[C@H](CCSC)NC(=O)[C@@H](N)CC(N)=O)CSSC[C@H](NC(=O)[C@H](CCCCN)NC(=O)CNC(=O)[C@H](Cc4ccccc4)NC(=O)[C@H]([C@@H](C)CC)NC(=O)[C@H](CO)NC(=O)CNC1=O)C(=O)N[C@@H](CCSC)C(=O)N[C@@H](CC(N)=O)C(=O)N[C@@H](CCCCN)C(=O)N[C@@H](CCCCN)C(=O)N3)C(=O)N[C@@H](CCCCN)C(=O)N[C@@H](CCC(N)=O)C(=O)N[C@@H](CCCCN)C(=O)N2` [Compound 20] (H-NMDMRCSASVECKQKCLDAIGSIFGKCMNKKCKCYPR-NH2; disulfide 6-27, 12-32, 16-34), for which the IC50 in [1] is above 3000 nM; in data set [2], 0.13 nM; in [3] it was 0.21 nM; in [4], 2530 nM; in data set [5] it was 0.1 nM; in [6], 99 nM. In addition, the “Selectivity Kv1.1/Kv1.3” value in data set [1] is reported as above 14300.
Turning to `CCCC[C@H](NC(=O)[C@@H]1CCCN1)C(=O)N[C@@H](CCC(=O)O)C(=O)N[C@@H](CCCC)C(=O)N[C@@H](CCCNC(=N)N)C(=O)N[C@H]1CSSC[C@@H]2NC(=O)[C@H](CCCCN)NC(=O)CNC(=O)[C@H](Cc3ccccc3)NC(=O)[C@H]([C@@H](C)CC)NC(=O)[C@H](CO)NC(=O)CNC(=O)[C@H]([C@@H](C)CC)NC(=O)[C@H](C)NC(=O)[C@H](C)NC(=O)[C@H](CC(C)C)NC(=O)[C@@H]3CSSC[C@@H](C(=O)N[C@@H](Cc4ccc(O)cc4)C(=O)N4CCC[C@H]4C(=O)N[C@@H](CCCNC(=N)N)C(=O)O)NC(=O)[C@H](CCCCN)NC(=O)[C@H](CSSC[C@H](NC(=O)[C@H](CCC(=O)O)NC(=O)[C@H](C(C)C)NC(=O)[C@H](CO)NC(=O)[C@H](C)NC(=O)[C@H](CO)NC1=O)C(=O)N[C@@H](CCCCN)C(=O)N[C@@H](CCC(N)=O)C(=O)N[C@@H](CCCCN)C(=O)N3)NC(=O)[C@H](CCCCN)NC(=O)[C@H](CCCCN)NC(=O)[C@H](CC(N)=O)NC(=O)[C@H](CCCC)NC2=O` [Compound 97] (H-P[Nle]E[Nle]RCSASVECKQKCLAAIGSIFGKC[Nle]NKKCKCYPR-OH; disulfide 6-27, 12-32, 16-34), the IC50 was above 3000 nM in data set [1]; 0.15 nM in data set [2]; 0.33 nM in data set [3]; above 3000 nM in data set [4]; at most 1 nM in data set [8]; 1120 nM in data set [6]. In addition, in data set [1], the “Selectivity Kv1.1/Kv1.3” value is given as above 9100. For the same molecule, the “% inhibition of ear thickness (AUC of Δ ear thickness 0-48 hours)” value turned out to be 42.5% in [7] (Exp #6) and 37.7% in data set [7] (Exp #8). Further, the “Selectivity Kv1.6/Kv1.3” value in data set [4] was above 9100. Besides, the AUC(0-inf) (in general, the area under the concentration-time curve extrapolated to infinity) in [9] was found to be 0.112 µM·h. Besides, in data set [9], the Cmax (commonly the highest concentration seen after dosing) is 52.6 nM. Also, the half-life (usually the time needed for the level to fall by half in the phase considered) in data set [9] is 62.4 min.
On to `CC[C@H](C)[C@@H]1NC(=O)[C@H](C)NC(=O)[C@H](CCCCN)NC(=O)[C@H](CC(C)C)NC(=O)[C@@H]2CSSC[C@@H](C(=O)N[C@@H](Cc3ccc(O)cc3)C(=O)N3CCC[C@H]3C(=O)N[C@@H](CCCNC(=N)N)C(N)=O)NC(=O)[C@H](CCCCN)NC(=O)[C@@H]3CSSC[C@H](NC(=O)[C@H](CCC(=O)O)NC(=O)[C@H](C(C)C)NC(=O)[C@H](CO)NC(=O)[C@H](C)NC(=O)[C@H](CO)NC(=O)[C@@H](NC(=O)[C@H](CCCNC(=N)N)NC(=O)[C@H](CCSC)NC(=O)[C@H](CC(=O)O)NC(=O)[C@H](CCSC)NC(=O)[C@@H](N)CC(N)=O)CSSC[C@H](NC(=O)[C@H](CCCCN)NC(=O)CNC(=O)[C@H](Cc4ccccc4)NC(=O)[C@H](CCCNC(=N)N)NC(=O)[C@H](CO)NC(=O)CNC1=O)C(=O)N[C@@H](CCSC)C(=O)N[C@@H](CC(N)=O)C(=O)N[C@@H](CCCCN)C(=O)N[C@@H](CCCCN)C(=O)N3)C(=O)N[C@@H](CCCCN)C(=O)N[C@@H](CCC(N)=O)C(=O)N[C@@H](CCCCN)C(=O)N2` [Compound 35] (H-NMDMRCSASVECKQKCLKAIGSRFGKCMNKKCKCYPR-NH2; disulfide 6-27, 12-32, 16-34), for which the IC50 was above 3000 nM in data set [1]; 0.077 nM in data set [2]; 0.2 nM in data set [3]; 192 nM in [4]; 0.1 nM in [5]; 18 nM in data set [6]. Moreover, in data set [1], the “Selectivity Kv1.1/Kv1.3” value is given as above 15000.
As to `CC[C@H](C)[C@@H]1NC(=O)[C@H](C)NC(=O)[C@H](C)NC(=O)[C@H](CC(C)C)NC(=O)[C@@H]2CSSC[C@@H](C(=O)N[C@@H](Cc3ccc(O)cc3)C(=O)N3CCC[C@H]3C(=O)N[C@@H](CCCNC(=N)N)C(N)=O)NC(=O)[C@H](CCCCN)NC(=O)[C@@H]3CSSC[C@H](NC(=O)[C@H](CCC(=O)O)NC(=O)[C@H](C(C)C)NC(=O)[C@H](CO)NC(=O)[C@H](C)NC(=O)[C@H](CO)NC(=O)[C@@H](NC(=O)[C@H](CCCNC(=N)N)NC(=O)[C@H](CCSC)NC(=O)[C@H](CC(=O)O)NC(=O)[C@H](CCSC)NC(=O)[C@@H](N)CC(N)=O)CSSC[C@H](NC(=O)[C@H](CCCCN)NC(=O)CNC(=O)[C@H](Cc4ccccc4)NC(=O)[C@H]([C@@H](C)CC)NC(=O)[C@H](CO)NC(=O)CNC1=O)C(=O)N[C@@H](CCSC)C(=O)N[C@@H](CC(N)=O)C(=O)N[C@@H](CCCCN)C(=O)N[C@@H](CCCCN)C(=O)N3)C(=O)N[C@@H](CCCCN)C(=O)N[C@@H](CCC(N)=O)C(=O)N[C@@H](CCCCN)C(=O)N2` [Compound 52] (H-NMDMRCSASVECKQKCLAAIGSIFGKCMNKKCKCYPR-NH2; disulfide 6-27, 12-32, 16-34), the IC50 in data set [1] was above 3000 nM; in data set [2] it was 0.11 nM; in data set [3], 0.11 nM; in data set [4], above 3000 nM; in data set [8] it was at most 1 nM; in data set [6] it was 88 nM. Also, the “Selectivity Kv1.1/Kv1.3” value in data set [1] is above 27500. For the same molecule, in data set [7] (Exp #4, +/- SD), the “% inhibition of ear thickness (AUC of Δ ear thickness 0-48 hours)” value is 25.1%. In addition, the “Selectivity Kv1.6/Kv1.3” value in [4] is above 27500. In data set [9], this molecule had an AUC(0-inf) of 0.0485 µM·h. The molecule also gave a peak concentration (Cmax) in [9] of 31.2 nM. Besides, in data set [9], the half-life was 53.4 min.
For `CC[C@H](C)[C@H](N)C(=O)N[C@@H](CC(N)=O)C(=O)N[C@H](C(=O)N[C@@H](CCCCN)C(=O)N[C@H]1CSSC[C@@H]2NC(=O)[C@H](CCCCN)NC(=O)CNC(=O)[C@H](Cc3ccccc3)NC(=O)[C@H](CCCNC(=N)N)NC(=O)[C@H](CCSC)NC(=O)CNC(=O)[C@H](C)NC(=O)[C@H](CC(=O)O)NC(=O)[C@H](CCCCN)NC(=O)[C@@H]3CSSC[C@@H](C(=O)N[C@@H](Cc4ccc(O)cc4)C(=O)N[C@@H](CO)C(=O)O)NC(=O)[C@H](CCCNC(=N)N)NC(=O)[C@H](CSSC[C@H](NC(=O)[C@H](CCC(N)=O)NC(=O)[C@H](CCC(N)=O)NC(=O)[C@@H]4CCCN4C(=O)[C@H](CC(C)C)NC(=O)[C@H](CO)NC1=O)C(=O)N[C@@H]([C@@H](C)CC)C(=O)N[C@@H](CCCCN)C(=O)N1CCC[C@H]1C(=O)N3)NC(=O)[C@H](CCCCN)NC(=O)[C@H](CCCCN)NC(=O)[C@H](CC(N)=O)NC(=O)[C@H](CCSC)NC2=O)C(C)C` [Moka1, reference compound], the “IC50 of Moka1 relative to IC50 of test compounds and ShK186 (IL-2 secretion)” value in [5] (test compound IC50 lower than that of Moka1) is listed as 10-100 fold.
